Like-named read-outs stand apart in the source and are kept apart here.
How the values were obtained:
[1] = target: Human CDK7/CycH/MAT1 (Homo sapiens (Human), UniProt P50613); experiment: Radiometric protein kinase assay (33PanQinase Activity Assay), CDK7; assay type: biochemical; details: ATP 3 μM
Procedure: Additionally for the CDK7 assay: • Human CDK7/CycH/MAT1 (ProQinase, 0366-0360-4—Lot 2). • RBER-CHKtide (ProQinase, 0581-0000-5—Lot 106).
(§1) A radiometric protein kinase assay (^33PanQinase® Activity Assay) was used for measuring the kinase activity of the two protein kinases (CDK12/CDK7). All kinase assays were performed in 96-well FlashPlates™ from PerkinElmer (Boston, MA, USA) in a 50 μL reaction volume.
(§2) The reaction cocktail was pipetted in four steps in the following order: • 20 μL of assay buffer (standard buffer) • 5 μL of ATP solution (in H2O) • 5 μL of test compound (in 10% DMSO) • 10 μL of substrate/10 μL of enzyme solution (premixed)
For the CDK7 assay, a reaction mixture (50 μL) containing the following components was prepared: • 70 mM HEPES-NaOH (pH 7.5); • sodium orthovanadate (3 μM); • PEG-20000 (50 μg/mL); • DTT (1.2 mM); • MgCl2 (3 mM); • MnCl2 (3 mM); • purified human CDK7/CycH/MAT1 (3.3 nM—Lot 02); • RBER-CHKtide substrate (40 μg/mL—Lot 106); • ATP (3 μM); • [γ-33P]-ATP (approx. 8×10^5 cpm per well); and • test compound at the appropriate concentration such that the final concentration of DMSO was […].
(§3) The reaction mixture was incubated at 30° C. for 60 min and then stopped by the addition of 2% (v/v) H3PO4. Plates were aspirated and washed two times with 200 μL 0.9% (w/v) NaCl. Incorporation of ^33Pi was determined with a microplate scintillation count (Microbeta, Wallac).
The residual activities for each concentration and the compound IC50 values were calculated using Quattro Workflow V3.1.1 (Quattro Research GmbH, Munich, Germany). The fitting model for the IC50 determinations was “Sigmoidal response (variable slope)” with parameters “top” fixed at 100% and “bottom” at 0%. The fitting method used was a least-squares fit.

[2] = target: Human CDK12 wt/CycK (Homo sapiens (Human), UniProt Q9NYV4); experiment: Radiometric protein kinase assay (33PanQinase Activity Assay), CDK12; assay type: biochemical; details: for CDK7/CDK12: ratio of CDK7 IC50 to CDK12 IC50, greater than 1 indicates selectivity for CDK12
Procedure: as §1, §2, §3
The fitting method used was a least-squares fit.

[3] = test system: A673 cells; experiment: Cytotoxicity in A673 cells (Cell Titer Glo viability); assay type: cell-based; details: for Ratio of Biochemical Potency:Cellular Potency: CDK12 IC50 / A673 IC50; for IC50: Homo sapiens
Procedure: Cells were plated in 96-well plates at a density of […] viable cells per well in 200 μL fully supplemented growth medium (DMEM+10% heat inactivated foetal bovine serum) and incubated for 24 hours in standard tissue culture conditions. Compounds, including MLN4924, were solubilised in DMSO and then diluted in fully supplemented growth medium at 2× their final assay concentration such that the final DMSO concentration was 0.1%. Growth medium in the assay plates was replaced with 50 μL of growth medium containing 2×MLN4924 (final assay concentration: 30 nM, where tested) or vehicle only and 50 μL of growth medium containing a 2× compound concentration series or vehicle only such that each compound was at 1× final assay concentration in 100 μL.
Cells were then incubated for 72 hours in standard tissue culture conditions before viability was assessed using 50 μL Cell Titer Glo reagent (Promega) per well and luminescence measured on an EnVision plate reader. Data were normalised to vehicle control (100%) and cells treated with 0.1% Triton x-100 for 1 hour before viability measurement (0%; full cell kill). […] Viability curves generated in the presence of MLN4924 were normalised and fixed to controls treated with MLN4924.

[4] = ATP 0.3 μM, read-out: CDK12 IC50
[5] = read-out: CKD12 Biochemical Potency IC50
[6] = A673, read-out: Cellular Potency IC50 (nM) (in A673 cells)
[7] = A673 cells, 72 hours, read-out: A673 IC50

Sequence of Human CDK12 wt/CycK (Q9NYV4 whole entry): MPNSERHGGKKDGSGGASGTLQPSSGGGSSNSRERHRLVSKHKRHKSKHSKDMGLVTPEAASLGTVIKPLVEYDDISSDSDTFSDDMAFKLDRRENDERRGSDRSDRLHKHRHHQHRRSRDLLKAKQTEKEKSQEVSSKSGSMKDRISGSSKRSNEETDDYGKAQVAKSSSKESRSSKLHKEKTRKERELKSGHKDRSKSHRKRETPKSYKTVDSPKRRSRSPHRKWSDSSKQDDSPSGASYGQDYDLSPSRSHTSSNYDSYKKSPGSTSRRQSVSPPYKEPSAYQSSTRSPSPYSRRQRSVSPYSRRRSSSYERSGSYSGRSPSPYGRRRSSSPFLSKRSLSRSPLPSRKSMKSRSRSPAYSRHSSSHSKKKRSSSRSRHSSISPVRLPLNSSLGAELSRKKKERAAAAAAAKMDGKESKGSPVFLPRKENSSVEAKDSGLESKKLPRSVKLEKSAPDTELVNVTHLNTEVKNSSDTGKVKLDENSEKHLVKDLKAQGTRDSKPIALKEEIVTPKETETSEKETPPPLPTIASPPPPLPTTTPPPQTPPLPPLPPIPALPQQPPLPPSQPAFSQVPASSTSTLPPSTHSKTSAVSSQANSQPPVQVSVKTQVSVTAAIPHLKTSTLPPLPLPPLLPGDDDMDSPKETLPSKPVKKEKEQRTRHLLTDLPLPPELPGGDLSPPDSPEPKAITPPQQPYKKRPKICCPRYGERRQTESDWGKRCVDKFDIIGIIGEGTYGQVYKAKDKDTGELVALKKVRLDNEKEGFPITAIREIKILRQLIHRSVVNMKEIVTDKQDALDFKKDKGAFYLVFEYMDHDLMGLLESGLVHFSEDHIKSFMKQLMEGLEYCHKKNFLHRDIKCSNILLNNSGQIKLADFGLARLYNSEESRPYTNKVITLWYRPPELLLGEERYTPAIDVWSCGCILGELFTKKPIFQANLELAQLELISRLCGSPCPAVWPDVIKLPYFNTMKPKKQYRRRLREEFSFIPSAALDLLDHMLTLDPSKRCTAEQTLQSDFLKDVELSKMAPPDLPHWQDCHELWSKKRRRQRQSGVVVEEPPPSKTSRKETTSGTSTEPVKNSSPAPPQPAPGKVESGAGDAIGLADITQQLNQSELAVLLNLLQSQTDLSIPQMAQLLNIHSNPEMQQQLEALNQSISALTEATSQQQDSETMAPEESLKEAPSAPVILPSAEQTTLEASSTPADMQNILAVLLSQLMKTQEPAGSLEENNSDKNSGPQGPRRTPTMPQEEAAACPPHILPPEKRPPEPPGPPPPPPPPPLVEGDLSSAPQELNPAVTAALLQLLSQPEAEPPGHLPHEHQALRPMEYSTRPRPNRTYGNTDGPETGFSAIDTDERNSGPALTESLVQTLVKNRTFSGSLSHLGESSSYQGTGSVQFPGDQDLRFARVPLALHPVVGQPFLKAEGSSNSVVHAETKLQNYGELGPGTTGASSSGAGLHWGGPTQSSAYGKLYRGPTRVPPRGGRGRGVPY
Sequence of Human CDK12 wt/CycK (O75909 whole entry partner): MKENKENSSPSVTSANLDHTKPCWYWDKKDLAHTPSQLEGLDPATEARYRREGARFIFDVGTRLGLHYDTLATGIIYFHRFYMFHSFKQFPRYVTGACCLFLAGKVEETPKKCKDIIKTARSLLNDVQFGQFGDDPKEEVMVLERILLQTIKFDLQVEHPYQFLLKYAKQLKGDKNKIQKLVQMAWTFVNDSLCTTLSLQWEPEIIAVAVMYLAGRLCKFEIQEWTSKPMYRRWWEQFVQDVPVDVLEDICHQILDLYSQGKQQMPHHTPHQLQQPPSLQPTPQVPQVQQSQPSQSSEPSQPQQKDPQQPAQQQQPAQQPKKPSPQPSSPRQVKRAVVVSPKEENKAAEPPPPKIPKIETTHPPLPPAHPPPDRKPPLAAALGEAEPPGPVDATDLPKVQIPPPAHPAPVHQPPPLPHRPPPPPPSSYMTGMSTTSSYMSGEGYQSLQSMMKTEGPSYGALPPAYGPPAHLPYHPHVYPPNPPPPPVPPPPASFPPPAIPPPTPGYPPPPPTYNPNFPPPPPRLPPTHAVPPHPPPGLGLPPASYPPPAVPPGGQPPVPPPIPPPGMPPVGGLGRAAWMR
Sequence of Human CDK7/CycH/MAT1 (P50613 whole entry): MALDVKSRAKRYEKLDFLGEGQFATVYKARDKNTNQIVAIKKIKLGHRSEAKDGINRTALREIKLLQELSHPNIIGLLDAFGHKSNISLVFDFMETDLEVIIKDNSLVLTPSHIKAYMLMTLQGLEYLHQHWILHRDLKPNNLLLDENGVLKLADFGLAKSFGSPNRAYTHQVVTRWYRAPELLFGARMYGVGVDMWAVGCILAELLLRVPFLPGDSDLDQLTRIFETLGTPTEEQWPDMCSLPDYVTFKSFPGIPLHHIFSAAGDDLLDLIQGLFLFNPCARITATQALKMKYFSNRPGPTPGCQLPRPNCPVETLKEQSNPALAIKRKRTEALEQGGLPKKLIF
Sequence of Human CDK7/CycH/MAT1 (P51946 whole entry partner): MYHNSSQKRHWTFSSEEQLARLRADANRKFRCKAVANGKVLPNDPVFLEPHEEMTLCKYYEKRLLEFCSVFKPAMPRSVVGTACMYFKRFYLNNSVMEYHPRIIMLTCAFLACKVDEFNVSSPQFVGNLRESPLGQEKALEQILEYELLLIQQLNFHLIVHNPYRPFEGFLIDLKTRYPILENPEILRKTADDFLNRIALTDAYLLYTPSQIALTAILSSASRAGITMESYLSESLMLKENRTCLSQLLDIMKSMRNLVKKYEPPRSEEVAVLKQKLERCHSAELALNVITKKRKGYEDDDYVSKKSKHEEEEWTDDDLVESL
Sequence of Human CDK7/CycH/MAT1 (P51948 whole entry partner): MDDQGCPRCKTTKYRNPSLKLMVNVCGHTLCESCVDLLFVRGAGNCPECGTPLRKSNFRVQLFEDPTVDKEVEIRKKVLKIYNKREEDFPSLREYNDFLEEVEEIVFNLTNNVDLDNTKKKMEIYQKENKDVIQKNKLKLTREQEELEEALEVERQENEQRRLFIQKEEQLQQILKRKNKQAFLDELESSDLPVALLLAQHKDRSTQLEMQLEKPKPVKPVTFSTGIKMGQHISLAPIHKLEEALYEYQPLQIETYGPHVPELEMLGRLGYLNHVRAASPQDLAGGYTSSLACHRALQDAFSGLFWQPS

Row | Compound | IC50 [1] | IC50 [2, 4] | CDK7/CDK12 [2] | IC50 [2, 5] | Ratio of Biochemical Potency:Cellular Potency [3] | IC50 [3, 6] | IC50 [3, 7]
1 | FC1(CNc2cc(NCc3ccc(-c4ccccn4)cc3)n3ncc(C4CC4)c3n2)CCNCC1 [PPA-062] | 3640 nM | 459 nM | 7.9 | 459 nM | 34.25 | 13.4 nM | 13.4 nM
2 | c1ccc(-c2ccc(CNc3cc(NC[C@H]4CNCCO4)nc4c(C5CC5)cnn34)cc2)nc1 [PPA-032] | 2760 nM | 1160 nM | 2.4 | 1160 nM | 22.52 | 51.5 nM | 51.5 nM
3 | O[C@H]1CNCC[C@@H]1CNc1cc(NCc2ccc(-c3ncccc3OC(F)(F)F)cc2)n2ncc(C3CC3)c2n1 [PPA-028] | 468 nM | 242 nM | 1.9 | 242 nM | 24.95 | 9.7 nM | 9.7 nM
4 | O[C@H]1CNCC[C@@H]1CNc1cc(NCc2ccc(-c3ncccc3C(F)(F)F)cc2)n2ncc(C3CC3)c2n1 [PPA-036] | 388 nM | 245 nM | 1.6 | 245 nM | 0.78 | 312 nM | 312 nM
5 | c1ccc(-c2ccc(CNc3cc(N[C@@H]4CCCNC4)nc4c(C5CC5)cnn34)cc2)nc1 [PPA-045] | 9610 nM | 374 nM | 25.7 | 374 nM | 11.27 | 33.2 nM | 33.2 nM
6 | CC1(CNc2cc(NCc3ccc(-c4ccccn4)cc3)n3ncc(C4CC4)c3n2)CCNCC1 [PPA-063] |  |  |  |  |  | 5.9 nM | 5.9 nM
7 | CS(=O)(=O)N1CCC(CNc2cc(NCc3ccc(-c4ccccn4)cc3)n3ncc(C4CC4)c3n2)CC1 [PPA-056] |  |  |  |  |  | > 100 nM | > 100 nM

Now from value to compound, other results behind:

Row | IC50 [1] | IC50 [2, 4] | CDK7/CDK12 [2] | IC50 [2, 5] | Compound | Ratio of Biochemical Potency:Cellular Potency [3] | IC50 [3, 6] | IC50 [3, 7]
8 | 153 nM | 160 nM | 1.0 | 160 nM | Cc1cc(CNc2cc(NC[C@H]3CCNC[C@@H]3O)nc3c(C(C)C)cnn23)ccc1-c1ccccn1 [PPA-011] | 2.32 | 69 nM | 69 nM
9 | 337 nM | 115 nM | 2.9 | 115 nM | O[C@H]1CNCC[C@@H]1CNc1cc(NCc2ccc(-n3cccc3)cc2)n2ncc(C3CC3)c2n1 [PPA-017] | 63.89 | 1.8 nM | 1.8 nM
10 | 340 nM | 36 nM | 9.4 | 36 nM | N#Cc1cnn2c(NCc3ccc(-c4ccccn4)cc3)cc(NC[C@H]3CCNC[C@@H]3O)nc12 [PPA-010] | 4.50 | 8 nM | 8 nM
11 | 169 nM | 53 nM | 3.2 | 53 nM | CN(C[C@H]1CCNC[C@@H]1O)c1cc(NCc2ccc(-c3ccccn3)cc2)n2ncc(C3CC3)c2n1 [PPA-053] | 21.20 | 2.5 nM | 2.5 nM
12 | 118 nM | 32 nM | 3.7 | 32 nM | O[C@H]1CNCC[C@@H]1CNc1cc(NCc2ccc(-c3ccccc3)cc2)n2ncc(Cl)c2n1 [PPA-083] | 7.11 | 4.5 nM | 4.5 nM
13 | 94 nM | 22 nM | 4.3 | 22 nM | O[C@H]1CNCC[C@@H]1CNc1cc(NCc2ccc(-c3ccccn3)cc2)n2ncc(Cl)c2n1 [PPA-016] | 110.00 | 0.2 nM | 0.2 nM
14 | 125 nM | 44 nM | 2.8 | 44 nM | CCc1cnn2c(NCc3ccc(-c4ccccc4)cc3)cc(NC[C@H]3CCNC[C@@H]3O)nc12 [PPA-082] | 4.58 | 9.6 nM | 9.6 nM
